Assay results from PMC4607586 (Bioorganic & medicinal chemistry letters, 2015).

Experiments:
HIV-1 protease = HIV-1 protease (Human immunodeficiency virus type 1 group M subtype B, UniProt P04585); experiment: HIV-1 protease enzyme inhibition assay; assay type: biochemical; settings: for improvement of protease inhibitory activity over 5b: relative to N-methyl-N-propyl amide 5b
HIV-1 LAI = experiment: Antiviral assay using MT-2 cells exposed to HIV-1 LAI; assay type: cell-based

| SMILES | enhanced potency over 5a (enzyme inhibition) (HIV-1 protease; relative to 5a) [fold] | antiviral activity (in words) (HIV-1 LAI) | improvement of protease inhibitory activity over 5b (HIV-1 protease) |
| --- | --- | --- | --- |
| CCCN(C)C(=O)c1cccc(C(=O)N[C@@H](Cc2ccccc2)[C@H](O)CN(CC(C)C)S(=O)(=O)c2ccc(OC)cc2)c1 [Inhibitor 5b] | 5 | – | – |
| CCCN(CCC)C(=O)c1cccc(C(=O)N[C@@H](Cc2ccccc2)[C@H](O)CN(CC(C)C)S(=O)(=O)c2ccc(OC)cc2)c1 [Inhibitor 5e] | – | no appreciable antiviral activity | – |
| COc1ccc(S(=O)(=O)N(CC(C)C)C[C@@H](O)[C@H](Cc2ccccc2)NC(=O)c2cccc(C(=O)N3CCOCC3)c2)cc1 [Inhibitor 5f] | – | very good antiviral activity | over 10 fold |
| COc1ccc(S(=O)(=O)N(CC(C)C)C[C@@H](O)[C@H](Cc2ccccc2)NC(=O)c2cccc(C(=O)N3CCN(C)CC3)c2)cc1 [Inhibitor 5g] | – | very good antiviral activity | over 10 fold |
| COC[C@@H]1C[C@@H](O)CN1C(=O)c1cccc(C(=O)N[C@@H](Cc2ccccc2)[C@H](O)CN(CC(C)C)S(=O)(=O)c2ccc(OC)cc2)c1 [Inhibitor 5h] | – | moderate antiviral activity | – |
| COC[C@H]1C[C@H](O)CN1C(=O)c1cccc(C(=O)N[C@@H](Cc2ccccc2)[C@H](O)CN(CC(C)C)S(=O)(=O)c2ccc(OC)cc2)c1 [Inhibitor 5i] | – | moderate antiviral activity | – |
| COC[C@H]1C[C@@H](O)CN1C(=O)c1cccc(C(=O)N[C@@H](Cc2ccccc2)[C@H](O)CN(CC(C)C)S(=O)(=O)c2ccc(OC)cc2)c1 [Inhibitor 5k] | – | moderate antiviral activity | – |
